Among the test systems are TK-10 renal; SF-295 CNS; CAKI-1 renal; SK-MEL-28 melanoma; HOP-62 NSCLC; SW-620 colon; NCI-H460 lung; EKVX NSCLC; 786-0 renal; M14 melanoma.
Test in all cases: NCI-60 cell line screen, 48 h

The structures appear in SMILES notation.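 Step 1: Grow cells in 96-well plates. Step 2: Expose to compound for 48 hours at 5 concentrations. Step 3: Interpolate endpoints linearly; if unreached, use highest concentration. Here, GI50 denotes the concentration required for 50% inhibition of growth. TGI: total growth inhibition.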

For the molecule `Oc1c(CN2CCC(N3CCCCC3)CC2)cc(Cc2cc(CN3CCC(N4CCCCC4)CC3)c(O)c3ncccc23)c2cccnc12`, the GI50 in the assay on TK-10 renal was 1.14 µM; with SF-295 CNS, 1.64 µM; in the assay with CAKI-1 renal, 0.941 µM; in the assay on SK-MEL-28 melanoma it was 1.24 µM; in the assay with HOP-62 NSCLC, 0.425 µM; with SW-620 colon, 0.726 µM. For the same molecule, the GI50 is 0.287 µM in the assay on NCI-H460 lung, 0.57 µM in the assay with EKVX NSCLC, 1.53 µM in the assay with 786-0 renal and 1.11 µM in the assay with M14 melanoma. Besides, the TGI in the assay with TK-10 renal worked out at 10.3 µM; in the assay with SF-295 CNS, 3.58 µM; in the assay on CAKI-1 renal it was 10.2 µM; in the assay with SK-MEL-28 melanoma, 5.77 µM; with HOP-62 NSCLC it was 4.93 µM; in the assay on SW-620 colon, 15.1 µM. Besides, the TGI with NCI-H460 lung was 11.5 µM; in the assay on EKVX NSCLC it was 15.5 µM; in the assay on 786-0 renal, 5.96 µM; with M14 melanoma, 2.75 µM.
`COc1ccc(/C=C/c2nccc3ccccc23)cc1OC`: the TGI with TK-10 renal, in the assay with SF-295 CNS, with CAKI-1 renal, with SK-MEL-28 melanoma, in the assay on HOP-62 NSCLC and in the assay on SW-620 colon was over 10 µM in each case. For the same molecule, the TGI in the assay on NCI-H460 lung, with EKVX NSCLC, in the assay with 786-0 renal and with M14 melanoma was over 10 µM in each case.
Take `CC[C@@H]1CN(C)[C@H]2Cc3c([nH]c4ccccc34)C(=O)C[C@H]1C2C(=O)OC` (stereo not given in full): the TGI with TK-10 renal, in the assay with SF-295 CNS, with CAKI-1 renal, in the assay on SK-MEL-28 melanoma, in the assay with HOP-62 NSCLC and with SW-620 colon was over 100 µM each time. For the same molecule, the TGI in the assay on NCI-H460 lung, in the assay with EKVX NSCLC, in the assay with 786-0 renal and in the assay on M14 melanoma was over 100 µM each time.
In the case of `CC(=O)OCCN1c2ccccc2Sc2cnccc21`, the TGI with TK-10 renal, in the assay on SF-295 CNS, in the assay with CAKI-1 renal, with SK-MEL-28 melanoma, in the assay with HOP-62 NSCLC and in the assay with SW-620 colon was over 10 µM each time. Moreover, the TGI with NCI-H460 lung, in the assay with EKVX NSCLC, in the assay on 786-0 renal and in the assay on M14 melanoma was over 10 µM throughout.
With `O=C(N/N=C/c1ccccc1O)c1ccccc1Nc1ccnc(C(F)(F)F)c1`, the GI50 in the assay with TK-10 renal is 0.467 µM; in the assay on SF-295 CNS it was 0.573 µM; in the assay on CAKI-1 renal, 0.337 µM; in the assay on SK-MEL-28 melanoma, 1.71 µM; with HOP-62 NSCLC, 0.41 µM; with SW-620 colon, 2.04 µM. Besides, the GI50 in the assay with NCI-H460 lung was 0.255 µM; in the assay on EKVX NSCLC it was 0.302 µM; in the assay on 786-0 renal, 0.46 µM; in the assay on M14 melanoma, 0.497 µM. Further, the TGI with TK-10 renal is over 100 µM; in the assay with SF-295 CNS, 27.6 µM; in the assay with CAKI-1 renal it was 10.3 µM; with SK-MEL-28 melanoma it was over 88.1 µM; with HOP-62 NSCLC, 13.4 µM; in the assay with SW-620 colon, over 100 µM. Moreover, the TGI with NCI-H460 lung was determined as 11.2 µM; in the assay with EKVX NSCLC it was 67.2 µM; in the assay on 786-0 renal, 9.26 µM; with M14 melanoma, 3.76 µM.
For the molecule `CCCn1cnc2c(SCc3ccccc3Cl)nc(N)nc21`, the GI50 with TK-10 renal is 14.5 µM; with SF-295 CNS it was 10.2 µM; with CAKI-1 renal, 6.43 µM; in the assay with SK-MEL-28 melanoma, 27 µM; in the assay on HOP-62 NSCLC, 21.1 µM; with SW-620 colon, 11.9 µM. Also, the GI50 in the assay with NCI-H460 lung was 4.2 µM; with EKVX NSCLC, 24.2 µM; in the assay on 786-0 renal, 14.9 µM; in the assay on M14 melanoma, 17.6 µM. Besides, the TGI in the assay on TK-10 renal was over 100 µM; in the assay with SF-295 CNS, 30.4 µM; in the assay with CAKI-1 renal it was 44.1 µM; in the assay on SK-MEL-28 melanoma, over 100 µM; in the assay with HOP-62 NSCLC it was over 100 µM; in the assay with SW-620 colon, over 100 µM. The TGI in the assay with NCI-H460 lung was 26.4 µM; with EKVX NSCLC, over 100 µM; in the assay on 786-0 renal it was 31.6 µM; in the assay on M14 melanoma, 61.9 µM.
In the case of `CCOC(=O)C1=C(OC(OCC)C(CC)[Se]c2ccccc2)CCCC1` (stereo not given), the TGI in the assay on TK-10 renal is over 100 µM; with SF-295 CNS, 55.6 µM; in the assay with CAKI-1 renal it was over 100 µM; in the assay with SK-MEL-28 melanoma it was over 100 µM; with HOP-62 NSCLC it was over 100 µM; with NCI-H460 lung, over 100 µM. For the same molecule, the TGI in the assay with EKVX NSCLC stood at 78.9 µM; with 786-0 renal it was 28.9 µM; in the assay with M14 melanoma it was 34.2 µM.
In the case of `OCC(O)CC[CH2][Sn]([Br])([c]1ccccc1)[c]1ccccc1` (stereo not given), the GI50 with TK-10 renal, in the assay on SF-295 CNS, with CAKI-1 renal, in the assay on HOP-62 NSCLC, with SW-620 colon and in the assay on NCI-H460 lung was over 100 µM in each case. In addition, the GI50 in the assay on EKVX NSCLC, in the assay with 786-0 renal and in the assay on M14 melanoma was over 100 µM in each case. Further, the TGI in the assay on TK-10 renal, with SF-295 CNS, in the assay on CAKI-1 renal, in the assay on HOP-62 NSCLC, in the assay on SW-620 colon and with NCI-H460 lung was over 100 µM in each case. Moreover, the TGI with EKVX NSCLC, in the assay with 786-0 renal and with M14 melanoma was over 100 µM in each case.
As for `CC/C(=C(/c1ccc(O)cc1)c1ccc(OCCNC)cc1)c1ccccc1`, the GI50 in the assay with TK-10 renal was 2.76 µM; with SF-295 CNS, 1.95 µM; in the assay on CAKI-1 renal, 2.75 µM; in the assay on SK-MEL-28 melanoma, 1.71 µM; in the assay with HOP-62 NSCLC it was 2.03 µM; in the assay with SW-620 colon it was 1.72 µM. In addition, the GI50 in the assay on NCI-H460 lung was 1.84 µM; in the assay with 786-0 renal, 1.64 µM; with M14 melanoma, 1.69 µM. The TGI in the assay on TK-10 renal amounted to 7.76 µM; with SF-295 CNS, 3.95 µM; with CAKI-1 renal it was 8.58 µM; in the assay with SK-MEL-28 melanoma it was 3.21 µM; in the assay with HOP-62 NSCLC, 4.44 µM; in the assay with SW-620 colon, 3.26 µM. The results for the TGI in the assay on NCI-H460 lung, in the assay with 786-0 renal and in the assay on M14 melanoma were 3.37 µM, 3.27 µM and 3.31 µM, respectively.

The values above are taken from PubChem BioAssay (NCI).
